How the values were obtained:
Format in all cases: cell-based
ACC-201 human GC cells = assay: Cell cycle analysis (PI, flow cytometry); conditions: 72 h
Experimental: (§1) Human GC cells ACC-201, AGS, MKN-74 and NCI-N87 were seeded in 6-well plates and allowed to adhere overnight. On the following day, the growth medium was removed, and the cells were treated with indicated concentrations of MGN (10–40 µg/mL) for 72 h. After that, the cells were washed with phosphate-buffered saline (PBS) and fixed in 70% ethanol at 4 °C overnight. Then, the cells were washed with PBS and stained with propidium iodide, utilizing PI/RNase Staining Buffer (BD Biosciences, Heidelberg, Germany) for 15 min in the dark. Cell distribution in different stages of the cell cycle was performed through the use of the FACS CaliburTM flow cytometer (BD Biosciences, Mountain View, CA, USA).

MKN-74 human GC cells = assay: Cell cycle analysis (PI, flow cytometry); conditions: 72 h
Experimental: as §1

AGS human GC cells = assay: Cell cycle analysis (PI, flow cytometry); conditions: 72 h
Experimental: as §1

NCI-N87 human GC cells = assay: Cell cycle analysis (PI, flow cytometry); conditions: 72 h
Experimental: as §1

[1] = tested on: human GC cells ACC-201, AGS, MKN-74 and NCI-N87; assay: BrdU incorporation assay; conditions: MGN 2–75 μg/mL, 72 h, four GC cell lines
Experimental: The human GC cells ACC-201, AGS, MKN-74 and NCI-N87 were placed in 96-well plates and allowed to adhere overnight. On the following day, the growth medium was replaced with fresh medium, and the cells were exposed to a series of tested MGN dilutions (2.0–75 µg/mL) for 72 h. Cell proliferation was quantified according to the manufacturer’s instruction, Cell Proliferation ELISA, BrdU (colorimetric) (Biorbyt, Cambridge, UK). Briefly, BrdU reagent was added to the medium, followed by Fixative/Denaturing Solution for 30 min at room temperature. Incorporated BrdU in the place of thymidine in the cell’s DNA under division was detected using mouse monoclonal anti-BrdU for 1 h at room temperature, followed by horseradish peroxidase (HRP)-linked goat anti-mouse IgG secondary antibody and tetramethylbenzidine (a HRP substrate) for 30 min at room temperature. The absorbance was measured at 450 nm using Infinite M200 Pro microplate reader (Tecan, Männedorf, Switzerland). Results are presented as a percentage of BrdU incorporation vs. control cells (indicated as 100%).

COc1ccc2c(c1O)-c1c(O)c(OC)cc3c1[C@H](C2)[N+](C)(C)CC3 [MGN, magnoflorine]
cells in G1 phase (ACC-201 human GC cells; ACC-201, MGN 10 µg/mL): 62.76% ± 2.434
cells in G2 phase (ACC-201 human GC cells; ACC-201, MGN 10 µg/mL): 9.96% ± 3.707
cells in S phase (ACC-201 human GC cells; ACC-201, MGN 10 µg/mL): 8.74% ± 3.423
cells in subG1 phase (ACC-201 human GC cells; ACC-201, MGN 10 µg/mL): 18.52% ± 1.414
cells in G1 phase (ACC-201 human GC cells; ACC-201, MGN 20 µg/mL): 57.23% ± 2.112
cells in G2 phase (ACC-201 human GC cells; ACC-201, MGN 20 µg/mL): 8.34% ± 4.237
cells in S phase (ACC-201 human GC cells; ACC-201, MGN 20 µg/mL): 8.33% ± 1.647
cells in subG1 phase (ACC-201 human GC cells; ACC-201, MGN 20 µg/mL): 26.06% ± 1.399
cells in G1 phase (ACC-201 human GC cells; ACC-201, MGN 30 µg/mL): 49.55% ± 1.820
cells in G2 phase (ACC-201 human GC cells; ACC-201, MGN 30 µg/mL): 5.87% ± 5.399
cells in S phase (ACC-201 human GC cells; ACC-201, MGN 30 µg/mL): 6.16% ± 1.340
cells in subG1 phase (ACC-201 human GC cells; ACC-201, MGN 30 µg/mL): 38.50% ± 1.886
cells in G1 phase (ACC-201 human GC cells; ACC-201, MGN 40 µg/mL): 39.27% ± 3.408
cells in G2 phase (ACC-201 human GC cells; ACC-201, MGN 40 µg/mL): 3.74% ± 1.615
cells in S phase (ACC-201 human GC cells; ACC-201, MGN 40 µg/mL): 5.61% ± 1.874
cells in subG1 phase (ACC-201 human GC cells; ACC-201, MGN 40 µg/mL): 51.43% ± 2.072
cells in G1 phase (MKN-74 human GC cells; MKN-74, MGN 10 µg/mL): 69.07% ± 1.886
cells in G2 phase (MKN-74 human GC cells; MKN-74, MGN 10 µg/mL): 16.23% ± 1.928
cells in S phase (MKN-74 human GC cells; MKN-74, MGN 10 µg/mL): 13.36% ± 0.622
cells in subG1 phase (MKN-74 human GC cells; MKN-74, MGN 10 µg/mL): 1.60% ± 2.688
cells in G1 phase (MKN-74 human GC cells; MKN-74, MGN 20 µg/mL): 73.81% ± 4.227
cells in G2 phase (MKN-74 human GC cells; MKN-74, MGN 20 µg/mL): 14.14% ± 2.076
cells in S phase (MKN-74 human GC cells; MKN-74, MGN 20 µg/mL): 9.97% ± 1.867
cells in subG1 phase (MKN-74 human GC cells; MKN-74, MGN 20 µg/mL): 2.28% ± 2.818
cells in G1 phase (MKN-74 human GC cells; MKN-74, MGN 30 µg/mL): 65.90% ± 3.533
cells in G2 phase (MKN-74 human GC cells; MKN-74, MGN 30 µg/mL): 22.92% ± 2.455
cells in S phase (MKN-74 human GC cells; MKN-74, MGN 30 µg/mL): 7.72% ± 1.822
cells in subG1 phase (MKN-74 human GC cells; MKN-74, MGN 30 µg/mL): 3.59% ± 2.787
cells in G1 phase (MKN-74 human GC cells; MKN-74, MGN 40 µg/mL): 50.20% ± 5.303
cells in G2 phase (MKN-74 human GC cells; MKN-74, MGN 40 µg/mL): 35.94% ± 6.691
cells in S phase (MKN-74 human GC cells; MKN-74, MGN 40 µg/mL): 8.25% ± 2.280
cells in subG1 phase (MKN-74 human GC cells; MKN-74, MGN 40 µg/mL): 5.60% ± 1.002
effect on cell cycle progression (MKN-74 human GC cells; MKN-74, MGN 10 and 20 µg/mL vs. 40 µg/mL): induced G1/S or G2/M phase cell cycle arrest
cells in G1 phase (AGS human GC cells; MGN 10 µg/mL): 58.09% ± 8.195
cells in G2 phase (AGS human GC cells; MGN 10 µg/mL): 23.35% ± 12.110
cells in S phase (AGS human GC cells; MGN 10 µg/mL): 17.62% ± 3.599
cells in subG1 phase (AGS human GC cells; MGN 10 µg/mL): 1.19% ± 2.437
cells in G1 phase (AGS human GC cells; MGN 20 µg/mL): 53.06% ± 12.980
cells in G2 phase (AGS human GC cells; MGN 20 µg/mL): 24.06% ± 16.000
cells in S phase (AGS human GC cells; MGN 20 µg/mL): 21.07% ± 2.593
cells in subG1 phase (AGS human GC cells; MGN 20 µg/mL): 2.17% ± 2.519
cells in G1 phase (AGS human GC cells; MGN 30 µg/mL): 43.08% ± 14.330
cells in G2 phase (AGS human GC cells; MGN 30 µg/mL): 31.77% ± 17.630
cells in S phase (AGS human GC cells; MGN 30 µg/mL): 21.55% ± 2.265
cells in subG1 phase (AGS human GC cells; MGN 30 µg/mL): 2.17% ± 3.000
cells in G1 phase (AGS human GC cells; MGN 40 µg/mL): 38.15% ± 13.350
cells in G2 phase (AGS human GC cells; MGN 40 µg/mL): 39.34% ± 15.720
cells in S phase (AGS human GC cells; MGN 40 µg/mL): 19.89% ± 2.653
cells in subG1 phase (AGS human GC cells; MGN 40 µg/mL): 2.98% ± 2.448
effect on cell cycle progression (AGS human GC cells; MGN 10–40 µg/mL): induced the G2/M phase arrest
cells in G1 phase (NCI-N87 human GC cells; NCI-N87, MGN 10 µg/mL): 69.39% ± 3.658
cells in G2 phase (NCI-N87 human GC cells; NCI-N87, MGN 10 µg/mL): 16.52% ± 2.770
cells in S phase (NCI-N87 human GC cells; NCI-N87, MGN 10 µg/mL): 11.81% ± 3.808
cells in subG1 phase (NCI-N87 human GC cells; NCI-N87, MGN 10 µg/mL): 2.41% ± 2.189
cells in G1 phase (NCI-N87 human GC cells; NCI-N87, MGN 20 µg/mL): 70.17% ± 2.905
cells in G2 phase (NCI-N87 human GC cells; NCI-N87, MGN 20 µg/mL): 15.56% ± 2.419
cells in S phase (NCI-N87 human GC cells; NCI-N87, MGN 20 µg/mL): 10.44% ± 6.685
cells in subG1 phase (NCI-N87 human GC cells; NCI-N87, MGN 20 µg/mL): 3.93% ± 2.591
cells in G1 phase (NCI-N87 human GC cells; NCI-N87, MGN 30 µg/mL): 67.45% ± 3.535
cells in G2 phase (NCI-N87 human GC cells; NCI-N87, MGN 30 µg/mL): 16.21% ± 1.874
cells in S phase (NCI-N87 human GC cells; NCI-N87, MGN 30 µg/mL): 10.12% ± 7.739
cells in subG1 phase (NCI-N87 human GC cells; NCI-N87, MGN 30 µg/mL): 6.33% ± 2.772
cells in G1 phase (NCI-N87 human GC cells; NCI-N87, MGN 40 µg/mL): 64.37% ± 3.651
cells in G2 phase (NCI-N87 human GC cells; NCI-N87, MGN 40 µg/mL): 17.06% ± 2.426
cells in S phase (NCI-N87 human GC cells; NCI-N87, MGN 40 µg/mL): 9.24% ± 5.603
cells in subG1 phase (NCI-N87 human GC cells; NCI-N87, MGN 40 µg/mL): 9.47% ± 1.163
effect on cell cycle progression (NCI-N87 human GC cells; NCI-N87, MGN 10–40 µg/mL): Minor changes in cell cycle progression
BrdU-labeled DNA (proliferation) [1]: dose-dependent decrease

— article PMC10647589, “Heterogeneous Cellular Response of Primary and Metastatic Human Gastric Adenocarcinoma Cell Lines to Magnoflorine and Its Additive Interaction with Docetaxel” (International Journal of Molecular Sciences, 2023)
